Source: patent US20200230205A1, “COMPOSITIONS AND METHODS FOR TREATING MYELIN DISORDERS” (CASE WESTERN RESERVE UNIVERSITY, priority 2017, published 2020)

Legend:
Type in all cases: cell-based, mouse
[1] = tested on: oligodendrocyte progenitor cells (OPCs); experiment: CSPG gradient crossing (spot) assay, OPC migration
Method: CSPG gradients were prepared as described previously (Tom, V. J., et al. Studies on the Development and Behavior of the Dystrophic Growth Cone, the Hallmark of Regeneration Failure, in an In vitro Model of the Glial Scar and after Spinal Cord Injury.). 24-well glass coverslip were coated with poly-L-lysine and nitrocellulose, and a mixture of 700 μg/mL aggrecan (A1960 Sigma) and 10 μg/mL laminin (11243217001 Sigma) spotted on the coated coverslip. After drying, coated coverslips were then incubated with laminin at 37° C. for 3h. Purified OPCs were plated at a density of 10,000/coverslip and cultured in DMEM/F12 medium containing with N2, PDGF (20 ng/ml), FGF (20 ng/ml), NT-3 (5 ng/ml), CNTF (O1 ng/ml), Glutamine (200 mM). Coverslips were stained with CS-56 (C8035, Sigma, 1:500) and O4 antibodies (Hybridoma Core Cleveland Clinic, 1:10). O4-positive cells crossing the aggrecan border were counted for each spot. For CSPG gradient quantification, 1×10^6 OPCs were plated per well on PLL, 1 μg/mL laminin, and 2 μg/mL aggrecan coated 6-well plates. OPCs treated with vehicle, 2.5 μM ISP, or 2.5 μM SISP for 2 days at 37° C. CM was harvested and incubated with freshly made spots. Spots were incubated with CM for 2 days at 37° C. then stained with CS-56 and laminin (L9393, Sigma, 1:1000) antibodies and consistently imaged. Using ImageJ software (NIH), pixel intensities of the CS-56 or laminin spot rims were quantified using the same ROI. For cultured spinal cord explant, the spinal cords of cervical and thoracic of P1 mouse pups were chopped into 1-2 mm tissue pieces and transferred to the coverslip. Explants were cultured in DMEM/F12 medium with 15% FBS (Hyclone), O1 ng/ml PDGF (Sigma) and N2 supplement (Invitrogen). For ISP treatment, 2.5 uM ISP was added to the media at the time of plating. 25 μM GM6001 (2983, Tocris), 100 nM MMP-2 inhibitor (444244, Calbiochem), and/or 2.5 μM ISP or SISP was used.

[2] = tested on: oligodendrocyte progenitor cells (OPCs); experiment: OPC maturation and process outgrowth on CSPGs (MBP footprint)
Method: OPCs were prepared from newborn C57BL/6 mice as described previously (Luo, F., et al. The Activators of Cyclin-Dependent Kinase 5 p35 and p39 Are Essential for Oligodendrocyte Maturation, Process Formation, and Myelination. J. Neurosci. 36, 3024-3037 (2016).). Cell culture plates were pre-coated with IgM (10 jpg/ml, Millipore) in 50 mM Tris-HCl and followed primary mouse antibody A2B5. Dissociated cells were incubated in the pre-coated culture dishes for 30 min at 37° C. and then non-adherent cells were gently removed. A2B5+ OPCs were released by 0.05% trypsin in DMEM at a purify of ˜96%. Purified OPC cells were expanded in DMEM/F12 medium supplemented with N2, 20 ng/ml PDGF, 20 ng/mlFGF, 5 ng/mlNT-3, 10 ng/ml CNTF, Glutamine (200 mM).
For MMP-2/04 staining, OPCs were plated onto 24-well coverslips that were precoated with PLL, 1 μg/mL laminin, and 2 μg/mL aggrecan and incubated with vehicle or 2.5 μM ISP for 2 days at 37° C. Cultured OPC or OL cells were fixed in 4% PFA and followed blocking in PBST solution (10% normal goat serum and 0.2% Triton-X100 in PBS). Diluted primary antibodies were incubated with samples overnight at 4° C. and followed by appropriate secondary antibody goat anti-mouse or anti-rabbit IgM or IgG conjugated with Alexa Fluor 488 or 594 (1:500, Invitrogen). […]

[3] = tested on: oligodendrocyte progenitor cells (OPCs); experiment: Ki-67 proliferation and TUNEL apoptosis of OPCs on aggrecan/laminin
Method: To assess proliferation, OPCs were plated on 24-well coverslips that were precoated with PLL, 1 μg/mL laminin, and 2 μg/mL aggrecan. OPCs were treated with vehicle, 2.5 μM ISP or SISP immediately upon plating for 2 days at 37° C. Coverslips were fixed and stained using the same method described in the immunocytochemistry section with Ki-67 (550609, BD Pharmingen, 1:500) and O4 (1:10). Coverslips were imaged and counted. To assess apoptosis, OPCs were cultured in the same fashion and incubated with vehicle or 1 μg/mL LPC for 2 hours at 2 days following vehicle, 2.5 μM ISP or SISP incubation. Coverslips were then fixed with PFA and methanol then stained using APO-BrdU TUNEL assay kit (A23210, ThermoFisher) and guidelines with an O/N incubation of the primary antibody at RT. Coverslips were additionally costained with DAPI (D9542, Sigma, 1:10,000) then imaged and counted.

Compound	OPC entry into the CSPG-rich area ([1]; 25 μM GM6001 or 100 nM OA-Hy, even in the presence of ISP)	MBP footprint ([2]; 100 nM OA-Hy, OPCs on aggrecan/laminin, vs ISP treatment alone)	apoptosis (TUNEL) following LPC treatment ([3]; 100 nM OA-Hy with ISP, LPC 1 μg/mL 2 hours, vs LPC-ISP)	TUNEL+ cells/total cells ([3]; 100 nM OA-Hy, 2 days in vitro, no LPC)	O4+ OPCs crossing the CSPG barrier ([1]; purified OPCs, 2.5 μM ISP vs control)	process outgrowth and maturation of OPCs grown on CSPGs (MBP+ footprints) ([2]; ISP vs vehicle on CSPGs)	OPC proliferation (Ki67) ([3]; 2.5 μM peptide, 2 div, laminin 1 and aggrecan 2 μg/mL, vs control)	OPC death (TUNEL) after LPC challenge ([3]; LPC 1 μg/mL, 2 hours, 2.5 μM ISP)	percentage of apoptotic cells (TUNEL) ([3]; OPCs on low laminin and aggrecan, 2.5 μM ISP)
CCCCCCCC/C=C\CCCCCCCC(=O)NO [OA-Hy, reference compound]	effectively halted OPC entry	decreased MBP footprint significantly	increased apoptosis	did not significantly increase	–	–	–	–	–
GRKKRRQRRRCDMAEHMERLKANDSLKLSQEYESI [ISP]	–	–	–	–	significantly induced greater O4+ OPC migration	largely rescued	no significant differences	decreased OPC death	decreased the percentage of apoptotic cells
